Data from BindingDB's records for doi:10.1016/S0960-894X(97)10016-6 (1997).

Molecular target: T1, Progesterone receptor (Oryctolagus cuniculus, UniProt P06186)
T1 sequence (P06186 whole entry): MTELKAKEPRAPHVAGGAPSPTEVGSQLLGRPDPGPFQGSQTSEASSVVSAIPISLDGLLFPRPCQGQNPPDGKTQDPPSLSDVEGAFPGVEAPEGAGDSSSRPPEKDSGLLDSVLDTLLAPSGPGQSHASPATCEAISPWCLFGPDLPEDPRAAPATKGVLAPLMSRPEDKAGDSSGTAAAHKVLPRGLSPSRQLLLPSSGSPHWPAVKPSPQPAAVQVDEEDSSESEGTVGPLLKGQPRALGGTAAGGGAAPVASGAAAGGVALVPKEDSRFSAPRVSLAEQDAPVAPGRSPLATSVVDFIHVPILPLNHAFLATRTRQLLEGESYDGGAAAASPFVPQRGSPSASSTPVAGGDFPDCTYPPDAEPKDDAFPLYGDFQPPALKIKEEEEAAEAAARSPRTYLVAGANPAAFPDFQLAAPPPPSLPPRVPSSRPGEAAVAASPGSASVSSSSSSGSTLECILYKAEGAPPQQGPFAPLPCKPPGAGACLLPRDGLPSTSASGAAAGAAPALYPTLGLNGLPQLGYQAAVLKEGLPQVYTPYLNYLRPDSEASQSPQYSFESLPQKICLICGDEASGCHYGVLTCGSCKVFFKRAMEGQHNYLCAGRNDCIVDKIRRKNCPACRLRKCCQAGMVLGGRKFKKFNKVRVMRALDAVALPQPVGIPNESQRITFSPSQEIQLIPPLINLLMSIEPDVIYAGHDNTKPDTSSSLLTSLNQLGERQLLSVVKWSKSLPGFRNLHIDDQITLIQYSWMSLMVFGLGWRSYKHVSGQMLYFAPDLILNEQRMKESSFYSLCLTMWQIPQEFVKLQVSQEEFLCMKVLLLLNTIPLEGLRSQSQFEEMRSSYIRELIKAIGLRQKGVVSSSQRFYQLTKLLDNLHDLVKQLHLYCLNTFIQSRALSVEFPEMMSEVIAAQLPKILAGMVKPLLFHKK
Assay: ChEBML_159701
Source text: Binding affinity determined by ability to displace [3H]R5020 radioligand using uterine progesterone receptor obtained from estrogen-primed rabbit

Row | IC50 [µM] | Structure (SMILES)
1 | > 10 | O=C(NNCC1=NN(c2ccc(F)cc2)C2C(Cc3cccc4ccccc34)CCCC12)c1ccccc1 (configuration not stated)
2 | > 10 | O=S(=O)(NNCC1=NN(c2ccc(F)cc2)C2C(Cc3cccc4ccccc34)CCCC12)c1ccccc1 (configuration not stated) [1-(4-Fluoro-phenyl)-3-(N'-[(E)-methylene]benzenesulfonohydrazide)-7-naphthalen-1-ylmethyl-octahydro-indazole]
